Experimental data as given in paper PMC10451377, “Rationally Designed Pyrimidine Compounds: Promising Novel Antibiotics for the Treatment of Staphylococcus aureus-Associated Bovine Mastitis” (Antibiotics, 2023).
In brackets after ≈: the same amount, converted by molar mass. Read-outs that look alike come from different tables or passages of the source.

What was measured:
[1] = test system: Staphylococcus aureus CMRSA-10; test: Broth microdilution MIC; format: cell-based
Description: (§1) Reference strains for this study (S. aureus ATCC 29213, ATCC 29740 [bovine mastitis strain Newbould], S. epidermidis ATCC 12228, E. coli ATCC 35695, E. faecalis ATCC 29212) were obtained from the American Type Culture Collection (ATCC, Rockville, MD). S. aureus strains CMRSA-10 and CMRSA-2 were obtained from the Laboratoire de santé publique du Québec (LSPQ, Sainte-Anne-de-Bellevue, QC, Canada) and are Canadian CA-MRSA USA-300 and HA-MRSA USA-100 clones, respectively. The strain E. coli imp4213 (lptD), used as a control in MIC assays, is a derivative of E. coli ATCC 35695 (E. coli MC4100) with an increased membrane permeability. […] Other MRSA strains used in this study are clinical isolates of human origin obtained from the microbiology laboratory of the Centre Hospitalier Universitaire de Sherbrooke (CHUS, Sherbrooke, QC, Canada). Bovine mastitis strains (S. aureus, S. chromogenes, S. haemolyticus, S. hominis, S. simulans) were obtained from the Canadian Bovine Mastitis and Milk Quality Research Network (CBRQMN, St-Hyacinthe, QC, Canada). Among these strains, S. aureus 2117 is a high producer of biofilm and was used in the biofilm-eradication assay. S. epidermidis isolates were provided by Centre de Recherche en Infectiologie (CRI) de Québec (Québec, QC, Canada).

[2] = test system: Staphylococcus aureus CMRSA-2; test: Broth microdilution MIC; format: cell-based
Description: as §1

[3] = test system: Bacillus subtilis xpt-lacZ; test: Broth microdilution MIC; format: cell-based; settings: B. subtilis xpt-lacZ, read-out: Broth Microdilution MIC
Bovine S. aureus = test: Susceptibility of isolate panel (MIC50, MIC90, range); format: cell-based, Staphylococcus aureus; settings: Bovine S. aureus, 48 isolates, CAMHB with 2% NaCl
Description: as §1
(§2) The antibacterial activity of the most promising compound, PC206, was also evaluated against larger groups of clinical isolates of human and animal origin. The MIC50 and MIC90 values represented the concentrations of drug required to inhibit the growth of 50% and 90% of the bacterial strains tested, respectively.

MRSA = test: as above; format: cell-based, Staphylococcus aureus; settings: 42 isolates, CAMHB with 2% NaCl
Description: as §1, §2

S. haemolitycus = test: as above; format: cell-based, S. haemolyticus; settings: Staphylococcus haemolyticus, S. haemolitycus, 10 isolates, CAMHB with 2% NaCl
Description: as §1, §2

S. chromogenes = test: as above; format: cell-based; settings: S. chromogenes, 5 isolates, CAMHB with 2% NaCl
Description: as §1, §2

S. epidermidis = test: as above; format: cell-based; settings: S. epidermidis, 10 isolates, CAMHB with 2% NaCl
Description: as §1, §2

S. hominis = test: as above; format: cell-based; settings: Staphylococcus hominis, S. hominis, 10 isolates, CAMHB with 2% NaCl
Description: as §1, §2

S. simulans = test: as above; format: cell-based; settings: S. simulans, 5 isolates, CAMHB with 2% NaCl
Description: as §1, §2

[4] = test system: guanine riboswitch-lacZ fusion construct (xpt-lacZ); test: Riboswitch regulation assay (lacZ-gene reporter); format: cell-based, B. subtilis
Description: The novel pyrimidine compounds, especially PC206, display specificity and potency against some staphylococci but not the other bacterial genus (Table 1 and Table 2). Because they are structurally derived from PC1 and PC2, these novel antibiotic candidates are expected to have the same mode of action. […] To verify this hypothesis, a strain of B. subtilis with a guanine riboswitch-lacZ fusion construct (named xpt-lacZ) integrated in its chromosome was exposed to these new antimicrobials. […] Therefore, it is an adequate reporter species. The metabolization of substrate ONPG into colored ONP was normalized by the bacterial suspension absorbance at 600 nm (Miller units) and relativized to the untreated condition.
β-galactosidase gene expression in the presence of the new pyrimidine analogs was studied, using an xpt-lacZ transcriptional fusion construct integrated in the genome of B. subtilis as previously described. Briefly, cultures were grown for 5 h at 35 °C in CAMHB, from an initial optical density of 0.05 at 600 nm (OD600), and then diluted 1:20 and in the presence of different concentrations of the compounds tested. Cultures were centrifuged for 10 min at 13,100 rpm, the supernatant was discarded, and pellets were suspended in a Z-buffer (NaH2PO4 40 mM, Na2HPO4 60 mM, MgSO4 1 mM, KCl 10 mM). Cultures OD600 were measured, and bacteria were then lysed with lysozyme (1 mg/mL) and β-mercaptoethanol 50 mM for 30 min. Lysates were centrifuged for 10 min at 13,100 rpm, and supernatants were incubated for 5 min at 30 °C with the substrate orthonitrophenyl-β-galactoside (ONPG; Sigma Aldrich). Reactions were stopped with Na2CO3 1M, supernatants OD420 were measured, and Miller units were calculated. A decrease in β-galactosidase activity indicated binding of the test compound to the riboswitch. Guanine and oxacillin were used as […] controls, respectively. The formula to measure Miller units is as follows: Millerunits=1000×OD420/t·v·OD600
Here, t represents the time of incubation with ONPG, and v represents the volume of the reaction.

[5] = test system: Staphylococcus aureus ATCC 29213; test: Broth microdilution MIC; settings: ATCC29213, read-out: Broth Microdilution MIC
[6] = test system: Escherichia coli ΔlptD4213; test: microbe, parasite or virus in culture; format: cell-based; settings: read-out: Broth Microdilution MIC
Description: as §1

MTT assay [7] = format: cell-based; settings: human, HepG2 cells
MTT assay [8] = format: cell-based; settings: bovine, MAC-T cells, 24 h
LDH release assay [9] = format: cell-based; settings: human, HepG2 cells
LDH release assay [10] = format: cell-based; settings: bovine, MAC-T cells, 24 h
[11] = test system: Staphylococcus epidermidis ATCC 12228; test: Broth microdilution MIC; settings: ATCC12228, read-out: Broth Microdilution MIC
[12] = test system: Enterococcus faecalis ATCC 29212; test: Broth microdilution MIC; settings: ATCC29212, read-out: Broth Microdilution MIC
[13] = test system: Escherichia coli ATCC 35695; test: Broth microdilution MIC; settings: ATCC35695, read-out: Broth Microdilution MIC
[14] = test system: all tested bacterial strains, including non-staphylococci strains; test: Broth microdilution MIC, summary over all strains tested; settings: read-out: MIC against all tested bacterial strains
[15] = Staphylococcus aureus, read-out: MIC50
[16] = Staphylococcus aureus, read-out: MIC90

Cc1onc(-c2ccccc2)c1C(=O)N[C@@H]1C(=O)N2[C@@H]1SC(C)(C)[C@@H]2C(=O)O [OXA, oxacillin]
MIC ([1]; CMRSA10, S. aureus CMRSA-10, CAMHB supplemented with 2% NaCl, read-out: Broth Microdilution MIC): 64 µg/mL (≈ 159 µM)
MIC ([2]; CMRSA2, S. aureus CMRSA-2, CAMHB supplemented with 2% NaCl, read-out: Broth Microdilution MIC): > 64 µg/mL
MIC [3]: 0.25 µg/mL (≈ 0.623 µM)
MIC Range (Bovine S. aureus): 0.03 to 32 µg/mL
MIC50 (Bovine S. aureus; [15]): 0.12 µg/mL (≈ 0.299 µM)
MIC90 (Bovine S. aureus; [16]): 0.25 µg/mL (≈ 0.623 µM)
MIC Range (MRSA): 4 to 64 µg/mL
MIC50 (MRSA; [15]): 32 µg/mL (≈ 79.7 µM)
MIC90 (MRSA; [16]): 64 µg/mL (≈ 159 µM)
MIC50 (S. haemolitycus; read-out: MIC50): > 16 µg/mL
MIC90 (S. haemolitycus; read-out: MIC90): > 16 µg/mL
MIC Range (S. chromogenes): 0.06 to 0.12 µg/mL
MIC50 (S. chromogenes; read-out: MIC50): 0.12 µg/mL (≈ 0.299 µM)
MIC90 (S. chromogenes; read-out: MIC90): 0.12 µg/mL (≈ 0.299 µM)
MIC Range (S. epidermidis): 0.03 to 16 µg/mL
MIC50 (S. epidermidis; Staphylococcus epidermidis, read-out: MIC50): 2 µg/mL (≈ 4.98 µM)
MIC90 (S. epidermidis; Staphylococcus epidermidis, read-out: MIC90): > 16 µg/mL
MIC50 (S. hominis; read-out: MIC50): 1 µg/mL (≈ 2.49 µM)
MIC90 (S. hominis; read-out: MIC90): > 16 µg/mL
MIC Range (S. simulans): 0.06 to 0.12 µg/mL
MIC50 (S. simulans; Staphylococcus simulans, read-out: MIC50): 0.06 µg/mL (≈ 0.149 µM)
MIC90 (S. simulans; Staphylococcus simulans, read-out: MIC90): 0.12 µg/mL (≈ 0.299 µM)
Effect on Miller units ([4]; concentrations below the MIC of 0.25 µg/mL): did not affect the expression of Miller units
MIC [5]: 0.25 µg/mL (≈ 0.623 µM)

CCCNc1cc(N)nc(N)n1 [PC371]
MIC ([1]; CMRSA10, read-out: Broth Microdilution MIC): > 128 µg/mL
MIC ([2]; CMRSA2, read-out: Broth Microdilution MIC): > 128 µg/mL
MIC [6]: > 128 µg/mL
MIC [3]: > 128 µg/mL
Effect on Miller units ([4]; 512 and 1024 μg/mL, one experiment): did not have any effect on the reporter gene expression
CC50 at 24 h (MTT assay [7]): > 600 µM
CC50 at 24 h (MTT assay [8]): > 600 µM
CC50 at 24 h (LDH release assay [9]): > 600 µM
CC50 at 24 h (LDH release assay [10]): > 600 µM
MIC [5]: > 128 µg/mL
MIC [11]: > 128 µg/mL
MIC [12]: > 128 µg/mL
MIC [13]: > 128 µg/mL
MIC [14]: > 128 µg/mL
